Results taken from PMC8582824, “Targeting DDX3X Helicase Activity with BA103 Shows Promising Therapeutic Effects in Preclinical Glioblastoma Models” (Cancers, 2021).

Tested on: U87 cells xenograft
Assay: Subcutaneous U87 xenograft model of GBM
Type: in vivo, CD1 nude mice
Conditions: 50 mg/kg i.p.
Description: Male CD1 nude mice (Charles River, Milan, Italy) were maintained under the guidelines established by our Institution (University of L’Aquila), complying with the Declaration of Helsinki, national and international laws and policies (European Economic Community Council Directive 86/609; Italian Legislative Decree 4.03.2014 n.26, Gazzetta Ufficiale della Repubblica Italiana no. 61, 4 March 2014). Before any invasive manipulation, mice were anesthetized with a mixture of ketamine (25 mg/mL)/xylazine (5 mg/mL). Tumor grafts were obtained by injecting s.c. 1 × 10^6 U87 cells in 100 µL of 12 mg/mL Matrigel (Becton Dickinson, Franklin Lakes, NJ, USA). Tumor growth was monitored daily by measuring the average tumor diameter, and mice were divided into experimental groups when the tumor reached a volume of approximately 50 mm^3. The tumor volume was calculated according to the formula 4/3πr^3, with r representing the […]. BA103 was administered i.p. in a saline solution containing 10% v/v DMSO and 10% v/v TWEEN 80. Each mouse received 50 mg/kg BA103, or vehicle, three times per week. Previous experiments with the same settings have permitted choosing the endpoint of 21 days considering the maximum mean volume of tumors in control mice that was compatible with no signs of distress. […]
Next, we tested our compound on U87 cells in a xenograft model of GBM. […] During the experiment, tumor growth was monitored measuring tumor volume, and at the end point, 21 days after the start point, mice were euthanized, and tumors were recovered and measured. […] Tumor masses were also analyzed for the expression of DDX3X, and all xenografts resulted positive for DDX3X expression, from both control and treated groups, with a spotted staining pattern (Figure 9D).
Figure 9 Biological activity of BA103 in xenograft models of GBM. […] Tumor growth was monitored by measuring tumor volume (B), and at the end point, tumors were weighed, and the resulting mean values for each group are reported in the histogram (C). […] Mice were monitored for two months after U87 cells inoculation.

CCCCc1cn(-c2ccc(NC(=O)Nc3ccccc3C(F)(F)F)cc2)nn1 [BA103, 1-(4-(4-Butyl-1H-1,2,3-triazol-1-yl)phenyl)-3-(2-(trifluoromethyl)phenyl)urea]
tumor growth (tumor volume) vs control (from the second week): reduction in tumor growth was evident | reduction of mean tumor mass with respect to control group (three times per week for two weeks, end point 21 days): ~60% | signs of distress in the receiving animal (two consecutive weeks): absence of any visible sign of distress
